Results: patent US11708348B2, “Protease inhibitors for treatment of coronavirus infections” (The Scripps Research Institute, priority 2021, dated 2023)

Test system: SARS-CoV-2 strain USA-WA1/2020
Test: microbe, parasite or virus in culture
Type: cell-based
Conditions: Severe acute respiratory syndrome coronavirus 2, HeLa-ACE2, 24 h, HeLa-ACE2 cells, SARS-CoV-2 infection, 24 h; class symbols; read-out: EC50, uM (Hela)

`CC(C)C[C@H](NC(=O)c1ccc2c(c1)OC(F)(F)O2)C(=O)N[C@@H](C[C@@H]1CCNC1=O)C(=O)COC(F)(F)F` [Compound 153, 2,2-difluoro-N-((S)-4-methyl-1-oxo-1-(((S)-3-oxo-1-((S)-2-oxopyrrolidin-3-yl)-4-(trifluoromethoxy)butan-2-yl)amino)pentan-2-yl)benzo[d][l,3]dioxole-5-carboxamide] and `CC(C)C[C@H](NC(=O)c1nc2ccccc2[nH]1)C(=O)N[C@@H](C[C@@H]1CCNC1=O)C(=O)COC(F)(F)F` [Compound 156, N-((S)-4-methyl-1-oxo-1-(((S)-3-oxo-1-((S)-2-oxopyrrolidin-3-yl)-4-(trifluoromethoxy)butan-2-yl)amino)pentan-2-yl)-1H-benzo[d]imidazole-2-carboxamide] cannot be ordered by EC50: less than 0.05 µM for the first, less than 0.05 µM for the second.

Compared with `CC(C)C[C@H](NC(=O)O[C@H]1CO[C@H]2OCC[C@H]21)C(=O)N[C@@H](C[C@@H]1CCNC1=O)C(=O)COc1c(F)c(F)cc(F)c1F` [Compound 150, (3R,3aS,6aR)-hexahydrofuro[2,3-b]furan-3-yl ((S)-4-methyl-1-oxo-1-(((S)-3-oxo-1-((S)-2-oxopyrrolidin-3-yl)-4-(2,3,5,6-tetrafluorophenoxy)butan-2-yl)amino)pentan-2-yl)carbamate], `CC(C)C[C@H](NC(=O)c1cc2ccccc2[nH]1)C(=O)N[C@@H](C[C@@H]1CCNC1=O)C(=O)COc1c(F)c(F)cc(F)c1F` [Compound 4, N-((S)-4-methyl-1-oxo-1-(((S)-3-oxo-1-((S)-2-oxopyrrolidin-3-yl)-4-(2,3,5,6-tetrafluorophenoxy)butan-2-yl)amino)pentan-2-yl)-1H-indole-2-carboxamide] is lower in EC50: 0.2 to 0.5 µM for the first, less than 0.05 µM for the second. The second is the more potent here.

First: CC(C)C[C@H](NC(=O)C(=O)NC1(CF)CC1)C(=O)N[C@@H](C[C@@H]1CCNC1=O)C(=O)COC(F)(F)F [Compound 254, Nl-(l-(fluoromethyl)-cyclopropyl)-N2-((S)-4-methyl-1-oxo-1-(((S)-3-oxo-1-((S)-2-oxopyrrolidin-3-yl)-4-(trifluoromethoxy)butan-2-yl)amino)pentan-2-yl)oxalamide]
Second: CC(C)C[C@H](NC(=O)[C@H](O)CF)C(=O)N[C@@H](C[C@@H]1CCNC1=O)C(=O)COC(F)(F)F [Compound 396, (S)-2-((S)-3-fluoro-2-hydroxypropanamido)-4-methyl-N-((S)-3-oxo-1-((S)-2-oxopyrrolidin-3-yl)-4-(trifluoromethoxy)butan-2-yl)pentanamide]
The EC50 of the first is lower: less than 0.05 µM for the first, 0.2 to 0.5 µM for the second.

First: O=C(NC(CC1CCOCC1)C(=O)N[C@@H](C[C@@H]1CCNC1=O)C(=O)COC(F)(F)F)c1cc(-c2ccccc2F)on1 (stereo partly drawn) [Compound 183, 5-(2-fluorophenyl)-N-(1-oxo-1-(((S)-3-oxo-1-((S)-2-oxopyrrolidin-3-yl)-4-(trifluoromethoxy)butan-2-yl)amino)-3-(tetrahydro-2H-pyran-4-yl)propan-2-yl)isoxazole-3-carboxamide]
Second: CC(C)C[C@H](NC(=O)[C@H](O)C(C)C)C(=O)N[C@@H](C[C@@H]1CCNC1=O)C(=O)COC(F)(F)F [Compound 355, (S)-2-((R)-2-hydroxy-3-methylbutanamido)-4-methyl-N-((S)-3-oxo-1-((S)-2-oxopyrrolidin-3-yl)-4-(trifluoromethoxy)butan-2-yl)pentanamide]
The EC50 of the first is lower: less than 0.05 µM for the first, 0.05 to 0.2 µM for the second. The first is the more potent here.

First: CC(C)(C)CC(O)C(=O)N1CC2(CC2)C[C@H]1C(=O)N[C@@H](C[C@@H]1CCNC1=O)C(=O)COC(F)(F)F (stereo partly drawn) [Compound 346, (6S)-5-(2-hydroxy-4,4-dimethylpentanoyl)-N-((S)-3-oxo-1-((S)-2-oxopyrrolidin-3-yl)-4-(trifluoromethoxy)butan-2-yl)-5-azaspiro[2.4]heptane-6-carboxamide]
Second: CC1(C)[C@@H]2[C@@H](C(=O)N[C@@H](C[C@@H]3CCNC3=O)C(=O)COC(F)(F)F)N(C(=O)C(O)CC(F)(F)F)C[C@@H]21 (stereo partly drawn) [Compound 391, (1R,2S,5S)-6,6-dimethyl-N-((S)-3-oxo-1-((S)-2-oxopyrrolidin-3-yl)-4-(trifluoromethoxy)butan-2-yl)-3-(4,4,4-trifluoro-2-hydroxybutanoyl)-3-azabicyclo[3.1.0]-hexane-2-carboxamide]
The EC50 of the first is lower: less than 0.05 µM for the first, 0.05 to 0.2 µM for the second.

`CC(C)C[C@H](NC(=O)C(=O)Nc1cccc2ccccc12)C(=O)N[C@@H](C[C@@H]1CCNC1=O)C(=O)COc1c(F)c(F)cc(F)c1F` [Compound 51, N1-((S)-4-methyl-1-oxo-1-(((S)-3-oxo-1-((S)-2-oxopyrrolidin-3-yl)-4-(2,3,5,6-tetrafluorophenoxy)butan-2-yl)amino)pentan-2-yl)-N2-(naphthalen-1-yl)oxalamide] and `Cc1cccc(NC(=O)C(=O)N[C@@H](CC(C)C)C(=O)N[C@@H](C[C@@H]2CCNC2=O)C(=O)COc2c(F)c(F)cc(F)c2F)c1C` [Compound 65, N1-(2,3-dimethylphenyl)-N2-((S)-4-methyl-1-oxo-1-(((S)-3-oxo-1-((S)-2-oxopyrrolidin-3-yl)-4-(2,3,5,6-tetrafluorophenoxy)butan-2-yl)amino)pentan-2-yl)oxalamide] cannot be ordered by EC50: less than 0.05 µM for the first, less than 0.05 µM for the second.

Compared with `CC(C)C[C@H](NC(=O)C(=O)Nc1c(OC(C)C)cccc1OC(C)C)C(=O)N[C@@H](C[C@@H]1CCNC1=O)C(=O)COC(F)(F)F` [Compound 170, Nl-(2,6-diisopropoxyphenyl)-N2-((S)-4-methyl-1-oxo-1-(((S)-3-oxo-1-((S)-2-oxopyrrolidin-3-yl)-4-(trifluoromethoxy)butan-2-yl)amino)pentan-2-yl)oxalamide], `O=C(N[C@@H](C[C@@H]1CCNC1=O)C(=O)COC(F)(F)F)C1[C@H]2CCC[C@H]2CN1C(=O)[C@H]1CCCO1` (stereo partly drawn) [Compound 299, (1S,3aR,6aS)-N-((S)-3-oxo-1-((S)-2-oxopyrrolidin-3-yl)-4-(trifluoromethoxy)butan-2-yl)-2-((R)-tetrahydrofuran-2-carbonyl)octahydro-cyclopenta[c]pyrrole-l-carboxamide] is higher in EC50: less than 0.05 µM for the first, 0.05 to 0.2 µM for the second.

Same assay, conditions: Severe acute respiratory syndrome coronavirus 2, HeLa-ACE2, 24 h, HeLa-ACE2 cells, SARS-CoV-2 infection, 24 h; given as bound; read-out: EC50, uM (Hela)

`CO[C@@H]1C[C@@H](C(=O)N[C@@H](C[C@@H]2CCNC2=O)C(=O)COC(F)(F)F)N(C(=O)C(=O)NC(C)(C)C)C1` [Compound 537, (2S,4R)-1-(2-(tert-butylamino)-2-oxoacetyl)-4-methoxy-N-((S)-3-oxo-1-((S)-2-oxopyrrolidin-3-yl)-4-(trifluoromethoxy)butan-2-yl)pyrrolidine-2-carboxamide] was tested, and the EC50 was greater than 1 µM.

Same assay, conditions: Severe acute respiratory syndrome coronavirus 2, HeLa-ACE2, 24 h, HeLa-ACE2 cells, SARS-CoV-2 infection, 24 h; read-out: EC50, uM (Hela)

`CC(C)(C)c1cccc(C(=O)N2CC3(CC3)C[C@H]2C(=O)N[C@@H](C[C@@H]2CCNC2=O)C(=O)COC(F)(F)F)c1` [Compound 458, (S)-5-(3-(tert-butyl)benzoyl)-N-((S)-3-oxo-1-((S)-2-oxopyrrolidin-3-yl)-4-(trifluoromethoxy)butan-2-yl)-5-azaspiro[2.4]heptane-6-carboxamide] and `O=C1NCC[C@H]1C[C@H](NC(=O)[C@@H]1CC2(CC2)CN1C(=O)c1ccc2c(c1)OC(F)(F)O2)C(=O)COC(F)(F)F` [Compound 687, (S)-5-(2,2-difluorobenzo[d][1,3]dioxole-5-carbonyl)-N-((S)-3-oxo-1-((S)-2-oxopyrrolidin-3-yl)-4-(trifluoromethoxy)butan-2-yl)-5-azaspiro[2.4]heptane-6-carboxamide] cannot be ordered by EC50: less than 0.05 µM for the first, less than 0.05 µM for the second.

First: [2H]C([2H])([2H])CCCC(=O)N1CC2(CC2)C[C@H]1C(=O)N[C@@H](C[C@@H]1CCNC1=O)C(=O)COC(F)(F)F [Compound 763, (S)-N-((S)-3-oxo-1-((S)-2-oxopyrrolidin-3-yl)-4-(trifluoromethoxy)butan-2-yl)-5-(pentanoyl-5,5,5-d3)-5-azaspiro[2.4]heptane-6-carboxamide]
Second: CC(C)(O)CCC(=O)N1CC2(CC2)C[C@H]1C(=O)N[C@@H](C[C@@H]1CCNC1=O)C(=O)COC(F)(F)F [Compound 430, (S)-5-(4-hydroxy-4-methylpentanoyl)-N-((S)-3-oxo-1-((S)-2-oxopyrrolidin-3-yl)-4-(trifluoromethoxy)butan-2-yl)-5-azaspiro[2.4]heptane-6-carboxamide]
The EC50 of the first is lower: less than 0.05 µM for the first, 0.2 to 0.5 µM for the second. The first is the more potent here.

`C[C@@H](O)C(=O)N1CC2(CC2)C[C@H]1C(=O)N[C@@H](C[C@@H]1CCNC1=O)C(=O)COC(F)(F)F` [Compound 697, (S)-5-((R)-2-hydroxypropanoyl)-N-((S)-3-oxo-1-((S)-2-oxopyrrolidin-3-yl)-4-(trifluoromethoxy)butan-2-yl)-5-azaspiro[2.4]heptane-6-carboxamide] and `CC(C)(F)C(O)C(=O)N1CC2(CC2)C[C@H]1C(=O)N[C@@H](C[C@@H]1CCNC1=O)C(=O)COC(F)(F)F` (stereo partly drawn) [Compound 762, (6S)-5-(3-fluoro-2-hydroxy-3-methylbutanoyl)-N-((S)-3-oxo-1-((S)-2-oxopyrrolidin-3-yl)-4-(trifluoromethoxy)butan-2-yl)-5-azaspiro[2.4]heptane-6-carboxamide] fall in the same range of EC50: 0.05 to 0.2 µM for the first, 0.05 to 0.2 µM for the second.

`O=C1NCC[C@H]1C[C@H](NC(=O)[C@@H]1CC2(CC2)CN1C(=O)[C@H](O)CC(F)F)C(=O)COC(F)(F)F` [Compound 450, (S)-5-((R)-4,4-difluoro-2-hydroxybutanoyl)-N-((S)-3-oxo-1-((S)-2-oxopyrrolidin-3-yl)-4-(trifluoromethoxy)butan-2-yl)-5-azaspiro[2.4]heptane-6-carboxamide] and `O=C1NCC[C@H]1C[C@H](NC(=O)[C@@H]1CC2(CC2)CN1C(=O)[C@H](O)c1ccccc1)C(=O)COC(F)(F)F` [Compound 412, (S)-5-((R)-2-hydroxy-2-phenylacetyl)-N-((S)-3-oxo-1-((S)-2-oxopyrrolidin-3-yl)-4-(trifluoromethoxy)butan-2-yl)-5-azaspiro[2.4]-heptane-6-carboxamide] fall in the same range of EC50: 0.05 to 0.2 µM for the first, 0.05 to 0.2 µM for the second.

With `CC1(C)C[C@@H](C(=O)N[C@@H](C[C@@H]2CCNC2=O)C(=O)COC(F)(F)F)N(C(=O)C(=O)NC2CC(F)(F)C2)C1` [Compound 543, (S)-1-(2-((3,3-difluorocyclo-butyl)amino)-2-oxoacetyl)-4,4-dimethyl-N-((S)-3-oxo-1-((S)-2-oxopyrrolidin-3-yl)-4-(trifluoromethoxy)butan-2-yl)pyrrolidine-2-carboxamide] the EC50 was 0.5 to 1 µM.
